In patent US6960614B2, “Oxygenated esters of 4-lodo phenylamino benzhydroxamic acids” (Warner-Lambert Company, priority 2000, dated 2005):

How the values were obtained:
MEK = experiment: Cellular Assay for Measuring MEK Inhibition (inhibition of ERK phosphorylation in C26 cells, Western blot); format: cell-based, murine; conditions: for IC50: inhibition of ERK phosphorylation in murine colon 26 (C26) carcinoma cells, determined graphically from dose response curve; for % Inhibition @ 1 μM / % Inhibition @ 10 μM / % Inhibition @ 0.1 μM: ERK phosphorylation in C26 cells
Method in brief: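 Exponentially growing murine colon 26 (C26) carcinoma cells treated with varying compound concentrations at 37° C, then lysed. Western blot with antibody to dually phosphorylated ERK1/ERK2; blots stripped and re-probed for total ERK1/ERK2.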

Row | SMILES | IC50 (MEK) [nM] | melting point | also measured
1 | O=C(NOC[C@@H]1C[C@H]1CO)c1ccc(F)c(F)c1Nc1ccc(I)cc1F (relative stereo) [Example 74, 3,4-Difluoro-2-(2-fluoro-4-iodo-phenylamino)-N-[trans-(2-hydroxymethyl-cyclopropylmethoxy)]-benzamide] | 18 | 128.5 to 128.7 °C | 
2 | O=C(NOC[C@@H]1C[C@H]1CO)c1cc(Cl)c(F)c(F)c1Nc1ccc(I)cc1F (relative stereo) [Example 75, 5-Chloro-3,4-difluoro-2-(2-fluoro-4-iodo-phenylamino)-N-[trans-(2-hydroxymethyl-cyclopropylmethoxy)]-benzamide] | 42 | 152.5 to 153.1 °C | 
3 | Cc1cc(I)ccc1Nc1c(C(=O)NOCCO)cc(F)c(F)c1F [Example 1, 3,4,5-Trifluoro-N-(2-hydroxy-ethoxy)-2-(4-iodo-2-methyl-phenylamino)-benzamide] | 8 | 205 to 207 °C (dec.) | 
4 | Cc1cc(I)ccc1Nc1c(C(=O)NOCCO)ccc(F)c1F [Example 2, 3,4-Difluoro-N-(2-hydroxy-ethoxy)-2-(4-iodo-2-methyl-phenylamino)-benzamide] | 3 | 181 to 183 °C | 
5 | O=C(NOCCO)c1ccc(F)c(F)c1Nc1ccc(I)cc1Cl [Example 3, 2-(2-Chloro-4-iodo-phenylamino)-3,4-difluoro-N-(2-hydroxy-ethoxy)-benzamide] | 4 | 173 to 175 °C | 
6 | O=C(NOCCO)c1cc(F)c(F)c(F)c1Nc1ccc(I)cc1Cl [Example 6, 2-(2-Chloro-4-iodo-phenylamino)-3,4,5-trifluoro-N-(2-hydroxy-ethoxy)-benzamide] | 5 | 183 to 184.5 °C | 
7 | O=C(NOCCO)c1cc(Cl)c(F)c(F)c1Nc1ccc(I)cc1 [Example 7, 5-Chloro-3,4-difluoro-N-(2-hydroxy-ethoxy)-2-(4-iodo-phenylamino)-benzamide] | 5 | 174 to 176 °C | 
8 | O=C(NOCCO)c1ccc(F)cc1Nc1ccc(I)cc1F [Example 8, 4-Fluoro-2-(2-fluoro-4-iodo-phenylamino)-N-(2-hydroxy-ethoxy)-benzamide] | 0.3 | 117 to 119 °C | 
9 | O=C(NOCCO)c1cc(Cl)c(F)c(F)c1Nc1ccc(I)cc1F [Example 10, 5-Chloro-3,4-difluoro-2-(2-fluoro-4-iodo-phenylamino)-N-(2-hydroxy-ethoxy)-benzamide] | 0.3 | 180 to 180.5 °C | 
10 | O=C(NOCCO)c1cc(Br)c(F)c(F)c1Nc1ccc(I)cc1F [Example 11, 5-Bromo-3,4-difluoro-2-(2-fluoro-4-iodo-phenylamino)-N-(2-hydroxy-ethoxy)-benzamide] | 2 | 189 to 190 °C | 
11 | Cc1cc(I)ccc1Nc1cc(F)c(F)cc1C(=O)NOCCO [Example 12, 4,5-Difluoro-N-(2-hydroxy-ethoxy)-2-(4-iodo-2-methyl-phenylamino)-benzamide] | 22 | 151.2 to 152.5 °C | 
12 | Cc1cc(I)ccc1Nc1c(C(=O)NOCCO)cc(Br)c(F)c1F [Example 13, 5-Bromo-3,4-difluoro-N-(2-hydroxy-ethoxy)-2-(4-iodo-2-methyl-phenylamino)-benzamide] | 2 | 208.2 to 209.6 °C | 
13 | O=C(NOCCO)c1cc(Br)c(F)c(F)c1Nc1ccc(I)cc1Cl [Example 14, 5-Bromo-2-(2-chloro-4-iodo-phenylamino)-3,4-difluoro-N-(2-hydroxy-ethoxy)-benzamide] | 2 | 190.2 to 200.2 °C | 
14 | Cc1cc(I)ccc1Nc1c(C(=O)NOCCO)cc(Cl)c(F)c1F [Example 15] | 1 | 199.1 to 200.8 °C | 
15 | Cc1cc(I)ccc1Nc1cc(F)c(Br)cc1C(=O)NOCCO [Example 16, 5-Bromo-4-fluoro-N-(2-hydroxy-ethoxy)-2-(4-iodo-2-methyl-phenylamino)-benzamide] | 20 | 154.4 to 156.4 °C | 
16 | O=C(NOCCO)c1cc(F)c(F)cc1Nc1ccc(I)cc1F [Example 18, 4,5-Difluoro-2-(2-fluoro-4-iodo-phenylamino)-N-(2-hydroxy-ethoxy)-benzamide] |  | 189.6 to 190.6 °C | 
17 | O=C(NOCCO)c1cc(Br)c(F)cc1Nc1ccc(I)cc1F [Example 19] | 1 | 173 to 175 °C | 
18 | O=C(NOCCO)c1cc(Cl)c(F)c(F)c1Nc1ccc(I)cc1Cl [Example 20, 5-Chloro-2-(2-chloro-4-iodo-phenylamino)-3,4-difluoro-N-(2-hydroxy-ethoxy)-benzamide] | 3 | 178 to 181 °C | 
19 | O=C(NOCCO)c1cc(F)c(F)c(F)c1Nc1ccc(I)cc1F [Example 21, 3,4,5-Trifluoro-2-(2-fluoro-4-iodo-phenylamino)-N-(2-hydroxy-ethoxy)-benzamide] | 1.8 | 185 to 187 °C | 

Row | SMILES | IC50 (MEK) [nM] | melting point | also measured
20 | O=C(NOCCCO)c1cc(Br)c(F)c(F)c1Nc1ccc(I)cc1Cl [Example 31, 5-Bromo-2-(2-chloro-4-iodo-phenylamino)-3,4-difluoro-N-(3-hydroxy-propoxy)-benzamide] |  | 120 to 121 °C | 
21 | C=COCCONC(=O)c1ccc(F)c(F)c1Nc1ccc(I)cc1Cl [Example 56, 2-(2-Chloro-4-iodo-phenylamino)-3,4-difluoro-N-(2-vinyloxy-ethoxy)-benzamide] |  | 141.5 to 143 °C | 
22 | C=COCCONC(=O)c1cc(Cl)c(F)c(F)c1Nc1ccc(I)cc1F [Example 60, 5-Chloro-3,4-difluoro-2-(2-fluoro-4-iodo-phenylamino)-N-(2-vinyloxy-ethoxy)-benzamide] |  | 119 to 120 °C | 
23 | O=C(NOCC(O)CO)c1cc(Br)c(F)c(F)c1Nc1ccccc1F (stereo not shown) [Example 84, 5-Bromo-N-(2,3-dihydroxy-propoxy)-3,4-difluoro-2-(2-fluoro-phenylamino)-benzamide] |  | 143.5 to 144.5 °C | 
24 | O=C(NOCC1(CO)CC1)c1ccc(F)c(F)c1Nc1ccc(F)cc1F [Example 222, 2-(2,4-Difluoro-phenylamino)-3,4-difluoro-N-(1-hydroxymethyl-cyclopropylmethoxy)-benzamide] |  |  | % Inhibition @ 1 μM (MEK): 9.6%; % Inhibition @ 10 μM (MEK): 55.6%
25 | O=C(NOCC1(CO)CC1)c1ccc(F)c(F)c1Nc1ccc(Br)cc1F [Example 223, 2-(4-Bromo-2-fluoro-phenylamino)-3,4-difluoro-N-(1-hydroxymethyl-cyclopropylmethoxy)-benzamide] |  |  | % Inhibition @ 0.1 μM (MEK): 5.2%; % Inhibition @ 1 μM (MEK): 56.7%
26 | O=C(NOCC1(CO)CC1)c1ccc(F)c(F)c1Nc1ccc(Cl)cc1F [Example 224, 2-(4-Chloro-2-fluoro-phenylamino)-3,4-difluoro-N-(1-hydroxymethyl-cyclopropylmethoxy)-benzamide] |  |  | % Inhibition @ 0.1 μM (MEK): 0%; % Inhibition @ 1 μM (MEK): 18.1%
27 | O=C(NOCC1(CO)CC1)c1cc(Cl)c(F)c(F)c1Nc1ccc(F)cc1F [Example 225, 5-Chloro-2-(2,4-difluoro-phenylamino)-3,4-difluoro-N-(1-hydroxymethyl-cyclopropylmethoxy)-benzamide] |  |  | % Inhibition @ 0.1 μM (MEK): 0%; % Inhibition @ 1 μM (MEK): 8.7%; % Inhibition @ 10 μM (MEK): 36.9%
28 | COCC(O)CONC(=O)c1ccc(F)c(F)c1Nc1ccc(F)cc1F (stereo not shown) [Example 226, 2-(2,4-Difluoro-phenylamino)-3,4-difluoro-N-(2-hydroxy-3-methoxy-propoxy)-benzamide] |  |  | % Inhibition @ 1 μM (MEK): 41.5%; % Inhibition @ 10 μM (MEK): 84.1%
29 | COCC(O)CONC(=O)c1cc(Cl)c(F)c(F)c1Nc1ccc(F)cc1F (stereo not shown) [Example 227, 5-Chloro-2-(2,4-difluoro-phenylamino)-3,4-difluoro-N-(2-hydroxy-3-methoxy-propoxy)-benzamide] |  |  | % Inhibition @ 1 μM (MEK): 24.2%; % Inhibition @ 10 μM (MEK): 63%
30 | COCC(O)CONC(=O)c1ccc(F)c(F)c1Nc1ccc(Br)cc1F (stereo not shown) [Example 228, 2-(4-Bromo-2-fluoro-phenylamino)-3,4-difluoro-N-(2-hydroxy-3-methoxy-propoxy)-benzamide] |  |  | % Inhibition @ 0.1 μM (MEK): 48.6%; % Inhibition @ 1 μM (MEK): 92.4%
31 | COCC(O)CONC(=O)c1ccc(F)c(F)c1Nc1ccc(Cl)cc1F (stereo not shown) [Example 229, 2-(4-Chloro-2-fluoro-phenylamino)-3,4-difluoro-N-(2-hydroxy-3-methoxy-propoxy)-benzamide] |  |  | % Inhibition @ 0.1 μM (MEK): 9.8%; % Inhibition @ 1 μM (MEK): 76.5%
32 | Cc1cc(I)ccc1Nc1c(C(=O)NOCCNc2ccccc2)cc(F)c(F)c1F [Example 230, 3,4,5-Trifluoro-2-(4-iodo-2-methyl-phenylamino)-N-(2-phenylamino-ethoxy)-benzamide] | 51 |  | 
33 | Cc1cc(I)ccc1Nc1c(C(=O)NOCCNc2ccccc2)cc(Br)c(F)c1F [Example 231, 5-Bromo-3,4-difluoro-2-(4-iodo-2-methyl-phenylamino)-N-(2-phenylamino-ethoxy)-benzamide] | 67 |  | 
34 | O=C(NOCCNc1ccccc1)c1ccc(F)c(F)c1Nc1ccc(I)cc1Cl [Example 232, 2-(2-Chloro-4-iodo-phenylamino)-3,4-difluoro-N-(2-phenylamino-ethoxy)-benzamide] | 22 |  | 
35 | O=C(NOCCNc1ccccc1)c1cc(F)c(F)c(F)c1Nc1ccc(I)cc1Cl [Example 233, 2-(2-Chloro-4-iodo-phenylamino)-3,4,5-trifluoro-N-(2-phenylamino-ethoxy)-benzamide] | 33 |  | 
36 | Cc1cc(I)ccc1Nc1c(C(=O)NOCCNc2ccccc2)ccc(F)c1F [Example 234, 3,4-Difluoro-2-(4-iodo-2-methyl-phenylamino)-N-(2-phenylamino-ethoxy)-benzamide] | 54 |  | 
37 | O=C(NOCCNc1ccccc1)c1cc(Br)c(F)c(F)c1Nc1ccc(I)cc1Cl [Example 235, 5-Bromo-2-(2-chloro-4-iodo-phenylamino)-3,4-difluoro-N-(2-phenylamino-ethoxy)-benzamide] | 62 |  | 
